From patent US20200123127A1, “REMOVAL OF SENESCENCE-ASSOCIATED MACROPHAGES” (EVERON BIOSCIENCES, INC., priority 2016, published 2020) come the findings set out here.

Read-outs that look alike come from different tables or passages of the source.

Test [1] concerns p16(Ink4a) expression in macrophages. The experiment in a line: Immunomodulators in vivo in p16Ink4a/Luc mice bearing alginate-encapsulated cells. To be noted: for in vivo bioluminescence / elevated p16(Ink4a) expression: after 10 day induction of bioluminescence, Poly(I:C) 2 and 10 mg/kg intraperitoneally. The arrangement: species or system mouse. The protocol: Mice were injected intraperitoneally with a 200 μl solution of 15 mg/mL D-luciferin potassium salt (Syd Labs; Boston, Mass.) in D-PBS without calcium and magnesium. At 10 minutes post-injection, isoflurane-anesthetized mice were placed into the IVIS Spectrum in vivo bioluminescent imaging system (PerkinElmer; Waltham, Mass.) for detection of luciferase activity (60-second exposure). Bioluminescence in p16^LUC mice was quantified as total flux (p/s) of luminescent signal from the abdomen using via Living Image® software.
We next investigated whether p16(Ink4a) expression was susceptible to M1-mediated regulation in vivo using immunotherapeutic agent Poly(I:C). Upon intraperitoneal injection of alginate-encapsulated cells, p16^Iak4a/Luc mice accumulate luciferase-positive macrophages that can be monitored in vivo via the IVIS imaging system. […] Further, treatment with Poly(I:C) had no effect on β-galactosidase activity nor viability (>95%) of lavage cells, consistent with in vitro data.

Test [2] relates to adult rat dermal fibroblasts (RDF). The experiment in a line: Resazurin viability assay, senescent vs proliferating rat dermal fibroblasts. The format is cell-based. The note with it: for IC50: Rattus norvegicus, Fibroblast. The protocol: (§1) Cytotoxicity of A1.1 analogs against bleomycin-induced senescent human NDFs and rat dermal fibroblasts (RDFs). Activity of analogs was assessed from dose-response curves against irradiation- or bleomycin-induced senescent and proliferating cells to calculate IC50s (uM). The fold difference of proliferating versus senescent cell IC50s was used to assess the level of specific anti-senescent activity of the compounds.
(§2) For generation senescent human neonatal dermal fibroblasts (NDFs) and adult rat dermal fibroblasts (RDFs), cells are treated at ˜10 ug/ml bleomycin for 3 days (for bleomycin-induced senescence) or irradiated once at 20 Gy using a gamma irradiator (Cs source), followed by at least 7 day recovery in fresh medium for induction of senescence. Senescent and non-senescent (proliferating) cells for each cell line are plated into 384-w plate, followed by 72 hour exposure to a dose titration of compounds. Viability measurements are estimated using the resazurin viability assay. Using GraphPad Prism 5, the IC50 values are calculated from the non-linear regression of log-transformed compound concentrations versus dose-response normalized to background and non-treated controls.

Test [3] has as its system human neonatal dermal fibroblasts (NDF). As to the kind of experiment: Resazurin viability assay, senescent vs proliferating/quiescent human neonatal dermal fibroblasts. It counts as cell-based. The note with it: for IC50: Homo sapiens, Fibroblast, 72 h, 72 hour exposure; for Selectivity (Prolif/Sen): NDF. How it is done: FIG. 2. Compound A1.1 selectively kills senescent human neonatal dermal fibroblasts (NDF) cells in a dose- and time-dependent manner. (FIG. 2A) Normal proliferating and quiescent NDF cells, and the cells made senescent via exposure to genotoxic agents (doxorubicin, bleomycin and gamma-irradiation) were incubated with increasing concentrations of A1.1. At 72 hours post-treatment cell viability was measured via resazurin viability assay. (FIG. 2B) Compound A1.1 selectively kills senescent NDF cells in time-dependent manner discriminating between acute genotoxic stress and senescence. Acutely damaged NDF cells were irradiated with 4 Gy gamma-irradiation 24 hours before A1.1 treatment. Senescent NDF cells were treated with bleomycin or irradiated with 15 Gy and incubated for 14 days to induce senescence before treatment with A1.1. Proliferating acutely damaged and senescent NDF cell were treated with 1.875-30 μM A1.1 and viable cells were measured at 72 hours after treatment. Average and standard deviation are shown.
Normal proliferating and quiescent NDF cells, and the cells made senescent via exposure to genotoxic agents (doxorubicin, bleomycin and gamma-irradiation) were incubated with increasing concentrations of A1.1. At 72 hours post-treatment cell viability was measured via resazurin viability assay.
A1.1 selectively kills senescent human neonatal dermal fibroblasts (NDF) cells in time-dependent manner discriminating between acute genotoxic stress and senescence ([…]). Acutely damaged NDF cells were irradiated with 4 Gy gamma-irradiation 24 hours before A1.1 treatment. Senescent NDF cells were treated with bleomycin or irradiated with 15 Gy and incubated for 14 days to induce senescence before treatment with A1.1.
as §1, §2

Test [4] has as its system B16 melanoma lung metastasis in C57BL/6 mice. The experiment in a line: Senescence-enhanced B16 lung metastasis model. The format is in vivo, mouse. The text has this:
FIG. 4. Efficacy of A1.1 analogs in the senescence-enhanced B16 metastasis model. (A) Quantification of metastatic nodules by H&E morphometric analysis, and the resulting reduction in tumor burden (%) compared to vehicle control. (B) Quantitation morphometric analysis of lungs excised from irradiated mice treated with analogs of A1.1 post-inoculation of B16 cell intravenously, along with quantitation of morphometric analysis, are provided. (C) In vitro testing of A1.1 and analogs against the growth and viability of B16 cells, as assessed by the resazurin viability assay after 72 hour exposure to compounds compared to non-treated controls.
The role of senescent cells in the promotion of metastatic potential of cancer cells has also been described [Patent WO 2013090645 A1; Campisi, J. (2015). Cancer and Aging: Rival Demons]. […] To test the efficacy of A1.1, irradiated (11 Gy followed by bone-marrow transplantation) and non-irradiated C57BL/6 mice received B16 melanoma cells via tail vein injection were subsequently (72 hours later) administered A1.1 (20 mg/kg) intraperitoneally once a day for 5 consecutive days.
Synthesized analogs were also tested in vivo, to assess whether optimized structures are capable of showing activity against senescence-mediated B16 lung metastasis in irradiated mice (FIG. 4B). Analogs A1.1, A1.12, A1.13, A1.14, A1.15, and A1.6 were administered at 20 mg/kg intraperitoneally for 5 consecutive days. In addition to A1.1, treatment with analogs A1.12, A1.14 and A1.15 at 20 mg/kg reduced the metastatic burden in the lungs of irradiated mice by more than 2-fold.

The mark [5] stands for this setting: light or radiation study, senescent RDF, irradiation-induced, 72 hour exposure, resazurin, read-out: IC50 RDFsen.irr.
[6] abbreviates: proliferating RDF, 72 hour exposure, resazurin, read-out: IC50 RDFprolif.
Setting [7] is: senescent RDF, bleomycin-induced, 72 hour exposure, resazurin, read-out: IC50 RDFsen.bleo.
[8] abbreviates: proliferating NDF, resazurin, read-out: IC50 NDFprolif.
Setting [9] is: senescent NDF, bleomycin-induced, resazurin, read-out: IC50 NDFsen.bleo.
[10] abbreviates: light or radiation study, senescent NDF, irradiation-induced, resazurin, read-out: IC50 NDFsen.irr.

As to IFN-α, in test [1], the “in vivo bioluminescence / elevated p16(Ink4a) expression” value is on record as “abrogates”.
On to `COc1ccc(C2CC(=NO)c3c(SCc4ccccc4)sc(C(=O)NCc4cccc(F)c4)c3C2)cc1` (stereo not shown) [Example A1.6, 3-(Benzylthio)-N-(3-fluorobenzyl)-4-(hydroxyimino)-6-(4-methoxyphenyl)-4,5,6,7-tetrahydrobenzo[c]thiophene-1-carboxamide], for which the IC50 in test [2] (setting [5]) is less than 5 µM; in test [2] (setting [6]), more than 20 µM; in test [2] (setting [7]), less than 5 µM; in test [3] (setting [8]) it was more than 20 µM; in test [3] (setting [9]), less than 5 µM; in test [3] (setting [10]), less than 5 µM. Moreover, the “reduction of B16 metastatic load in the lungs of irradiated mice vs vehicle” value in test [4] (20 mg/kg intraperitoneally once a day for 5 consecutive days, irradiated (11 Gy) C57BL/6 mice) was “did not show a substantial decrease”.
As to Poly(I:C), the “in vivo bioluminescence / elevated p16(Ink4a) expression” value in test [1] is listed as “complete abrogation of signal”. In addition, in test [1] (mouse, in vivo), the “viability of lavage cells” value is listed as more than 95% and the “β-galactosidase activity of lavage cells” value is reported as “no effect”. In addition, in test [1] (peritoneal lavage), the “proportion of CD11b+ F4/80+ macrophages” value is given as “no difference”. In test [1] (peritoneal lavage cells), the “decrease in luciferase activity per lavage cell vs non-treated controls” value is more than 6 fold.
As for `CCOC(=O)c1sc(SCc2ccccc2)c2c1CC(c1ccc(OC)cc1)C/C2=N\O` (stereo not shown) [Example A1.1], the “Selectivity (Prolif/Sen)” value in test [2] (RDF, Bleomycin) is more than 4.6; in test [2] (RDF, Irradiation), more than 4.4; in test [3] (Bleomycin), 5.3; in test [3] (Irradiation) it was 2.9. Moreover, the concentration for half-maximal inhibition (IC50) in test [2] (light or radiation study, RDF, senescence induction: Irradiation, read-out: Activity against Senescent Cells (IC50; uM)) is 4.5 µM; in test [2] (setting [5]), less than 5 µM; in test [2] (RDF proliferating, read-out: Activity against Proliferating Cells (IC50; uM)), more than 20 µM; in test [2] (RDF, senescence induction: Bleomycin, read-out: Activity against Senescent Cells (IC50; uM)), 4.4 µM; in test [2] (setting [6]), more than 20 µM; in test [2] (setting [7]), less than 10 µM. Also, the concentration for half-maximal inhibition (IC50) in test [3] (setting [8]) is more than 20 µM; in test [3] (setting [9]), less than 5 µM; in test [3] (setting [10]), less than 10 µM. Further, the “effect on viability of proliferating or quiescent NDF cells” value in test [3] (concentrations up to 10 μM, 72 hours, resazurin) is recorded as “no significant effect”. For the same compound, in test [4] (20 mg/kg intraperitoneally, 5 consecutive days, non-irradiated mice), the “tumor burden in non-irradiated animals” value is listed as “did not affect”.
